Results on one compound are retold here after patent US6387948B1, “8-Acetylarteminolide and process for preparing same” (Korea Research Institute of Bioscience and Biotechnology, priority 2000, dated 2002).

Data set [1] addresses T1, farnesyl-protein transferase(FPTase) (Rattus norvegicus, UniProt Q02293+Q04631).
T1 construct: the cerebrum of a white rat(male Sprague Dowley weighing 100-150 g) was washed with physiological saline solution and homogenized; from tissue; host or cells: rat cerebrum (male Sprague Dawley)
Kind of data set: Farnesyl-protein transferase inhibiting activity, scintillation proximity assay (SPA). It is filed as biochemical, white rat. Particulars: rat cerebrum FPTase, 3H-FPP, biotin-lamin B peptide; read-out: concentration required for inhibiting farnesyl protein transferase by 50%(IC50) (converted). Here is the method:
Farnesyl-protein transferase(FPTase) activity was determined in accordance with the scintillation proximity assay(SPA) method of Blown et al. described in Cell, 62, 1(1990) by using ^3H-farnesyl pyrophosphate(^3H-FPP) as a substrate.
First, the cerebrum of a white rat(male Sprague Dowley weighing 100-150 g) was washed with physiological saline solution and homogenized. The homogenized solution was centrifuged and partially purified by using Q sepharose fast flow column(Pharmacia, co.) to obtain famnesyl protein transferase(FPTase).
10 μl of 8-acetylarteminolide, 40 μl of FPTase obtained above, 10 μl of an assay buffer(50 mM Tris-HCl, pH 7.5, 25 mM MgCl2, 2 mM KCl, 5 mM DTT, 5 mM Na2HPO4, 0.01% Triton X-100), 20 μl of diluted ^3H-FPP and 20 μl of biotin-lamin B peptide were mixed together and the resulting mixture was reacted at room temperature for 30 minutes. 150 μl of SPA bead/stop reagent solution(Amersham, Inc. UK) was added to the mixture and the enzymatic activity was determined by examining the extent of biotin-lamin B peptide farneslyation, expressed by unit of count per minute(CPM), with a liquid scintillation counter.
The FPTase inhibiting activity was then calculated in accordance with the following equation: [formula] […]
For orientation: SPA uses beads or plates that emit light when radiolabelled molecules are held near them.

Data set [2] deals with Human breast cancer cell line MCF-7. The experiment in a line: Cell-cycle inhibiting activity, propidium iodide FACS analysis. The data set is classed as cell-based. Particulars: for % of cells G0/G1 phase / % of cells G2/M phase / % of cells S phase: 7.5 μl of 5 mg/ml DMSO solution in 7.5 ml medium. Here is the method:
Human breast cancer cell line MCF-7(ATCC HTB-22) was divided into 7.5 ml portions of RPMI1640 culture medium(GIBCO BRL) kept in T25 flasks and incubated at 37° C. under an atmosphere containing 5% CO2 for 12 hours. Added to the cell cultures of one group of flasks was 7.5 μl of DMSO solution containing 5 mg/ml of 8-acetylarteminolide obtained in Example 1, while 7.5 μl of pure DMSO was added to the cultures of another group of flasks as a control, followed by incubation at 37° C. under an atmosphere containing 5% CO2 for 12, 24 and 36 hours, respectively.
To examine the activity of inventive compound in inhibiting the progression of the cell cycle, each of the cultures was treated with trypsin and centrifuged at 200×g for 5 minutes, and then, the cell precipitate was washed twice with cold PBS. 3 ml of 70% ethanol was added thereto and the resulting mixture was left standing at −20° C. for 12 hours to fix the cell. The resulting mixture was centrifuged at 200×g for 5 minutes and the cell precipitate was washed twice with PBS to remove remaining ethanol. Added to the cell precipitate in sequence were 1 ml of PBS and 50 μl RNase A solution(100 μg/ml). The mixture was reacted at 37° C. for 30 minutes and 10 μl of PBS containing 1 mg/ml of propidium iodide was added thereto.
The cell cycles of 20,000 stained cells were analyzed by using Becton-Dickinson FACS Calibur and Becton-Dickinson Modifit cell-cycle analysis program.
For orientation: In flow cytometry, cells or beads pass a laser one at a time.

A further data set relates to Angiogenesis. Kind of data set: Angiogenesis-suppressing activity, chorioallantoic membrane(CAM) assay. The data set is classed as in vivo. Particulars: Gallus gallus; 10 μg/ml, CAM of fertilized chicken eggs. How it is done: Angiogenesis was determined in accordance with the chorioallantoic membrane(CAM) assay method described in Kusaka et al., Biochem. Biophy. Res. Comm., 174, 1070(1991), using fertilized chicken eggs.
A fertilized chicken egg(Pulmuwon co., Korea) was incubated at 37-38° C. and a humidity of more than 90%. Here, 0 day-embryo means that the fertilized egg had been stored at 18° C. for less than 4 days since laying.
The pointed end of the fertilized egg was scratched with a knife, laid horizontally, the scratched site was punctured with a 5 ml syringe and 2 ml of albumin was extracted from the fertilized egg. The puncture hole was then sealed with a glass-tape. The fertilized egg, positioned such that the sealed hole was at the bottom, was incubated under the same condition described above.
The end of the fertilized egg where the air sac is located, i.e., the end opposite to the hole site was opened, a window having a diameter of 2-3 cm was installed therein, the window was sealed with a glass-tape, and the incubation was resumed.
By this time, a CAM of 2-5 mm diameter had developed. 8-Acetylarteminolide was dissolved in ethanol to a concentration of 10 μg/ml, 10 μl of the solution was dropped on quartered Thermanox coverslip(Nunc, Co.,) and dried in a clean bench. […]
Angiogenesis suppressing activity was then calculated in accordance with the following equation: [formula]

Data set [3] is described as follows: Solubility (physicochemical properties).
The test system of data set [4] is Human breast cancer cell line MCF-7. Kind of data set: Cell-cycle inhibiting activity, propidium iodide FACS analysis. The settings on record: MCF7, G2 to M phase progression, read-out: concentration required for inhibiting the progression of the cell cycle by 50%. It is filed as cell-based.

One may read the inhibition as the percentage by which the read-out fell short of the control. A higher inhibition goes with a strong effect.

In brackets after ≈: the same amount, converted by molar mass. Several values for one entry are separate records, joined by “and”; a condition that tells them apart may be missing. Identical values can stand only once.

With `C=C1C(=O)OC2C1CCC(C)(O)C13C=CC(C)(C21)C1(C3)C(=O)OC2C3C(C)=CC(=O)C3=C(C)CC(OC(C)=O)C21` (stereo not shown) [8-acetylarteminolide], in data set [1], the IC50 was ~1820 nM and ~1800 nM and 1820 nM and 1800 nM. Besides, in data set [2] (MCF-7, 12 hours), the “% of cells G0/G1 phase” value turned out to be 47.59%, the “% of cells G2/M phase” value is 18.06% and the “% of cells S phase” value was determined as 34.35%. Moreover, in data set [2] (MCF-7, 24 hours), the “percentage of cells in the G2/M phase compared to the control cells” value amounted to 10 fold, the “% of cells G0/G1 phase” value was 47.49%, the “% of cells G2/M phase” value stood at 27.97% and the “% of cells S phase” value stood at 24.54%. In addition, in data set [2] (MCF-7, 36 hours), the “percentage of cells in the G2/M phase compared to the control cells” value was “two-fold higher”, the “% of cells G0/G1 phase” value amounted to 73.2%, the “% of cells G2/M phase” value was determined as 19.79% and the “% of cells S phase” value was 7.01%. The compound also registered an inhibition at 10 µg/mL with Angiogenesis of 60%. For the same compound, the “Solubility Insoluble:” value in data set [3] (solvents in which insoluble) is on record as “hexane, H2O”. The “Solubility Soluble:” value in data set [3] (solvents in which soluble) is recorded as “alcohol, acetone, chloroform, DMSO”. Moreover, the IC50 in data set [4] was about 5 µg/mL (≈ 9.11 µM).
